Source: patent US12559495B2 (Agency for Science, Technology and Research, priority 2013, dated 2026)

Test system: HEK293-STF3A cells
Assay: STF3A assay (luciferase reporter)
Format: cell-based
Conditions: Homo sapiens, 24 h, 1 day of treatment
Protocol: HEK293-STF cell line was modified from Human embryonic kidney cell line HEK293 transfected with the STF reporter. HEK293-STF3A cell line was further modified from HEK293-STF cell line to express Wnt3A. This cell line was used to identify compounds that regulate either early or late signalling components of the Wnt pathway. L-Wnt3A (ATCC, #CRL-2647) cell line was used for providing Wnt3A conditioned media. The three cell lines were grown in DMEM (Dulbecco's Modified Eagle Medium) with 10% FBS (fetal bovine serum) incubated in 37° C. with 5% CO2. 2×10^4 HEK293-STF3A cells in 75 μl culture media were seeded in each well of white 96 well plates (Greiner #655098) and incubated overnight at 37° C. 25 μl serially diluted compound was added to the cells to give final concentration of 50 μM to 1.5 nM. After 1 day of treatment, 100 μl of Steady-Glo® Luciferase Assay reagent (#E2520, Promega) was added to each well and incubated for 10 minutes at room temperature. Luminescence was measured using Tecan Safire2® plate reader.

Compound | IC50 [nM]
Cn1c(=O)c2c(ncn2CC(=O)Nc2ccc(N3CCN(C(=O)OC(C)(C)C)CC3)cc2)n(C)c1=O [Compound 22, tert-butyl 4-(4-(2-(1,3-dimethyl-2,6-dioxo-2,3-dihydro-1H-purin-7(6H)-yl)acetamido)phenyl)piperazine-1-carboxylate] | < 100
Cn1c(=O)c2c(ncn2CC(=O)Nc2ccc(-c3nccs3)cn2)n(C)c1=O [Compound 41, 2-(1,3-dimethyl-2,6-dioxo-2,3-dihydro-1H-purin-7(6H)-yl)-N-(5-(thiazol-2-yl)pyridin-2-yl)acetamide] | < 100
CCn1c(=O)c2c(ncn2CC(=O)Nc2ccc(-c3ccsc3)cc2)n(CC)c1=O [Compound 72, 2-(1,3-diethyl-2,6-dioxo-2,3-dihydro-1H-purin-7(6H)-yl)-N-(4-(thiophen-3-yl)phenyl)acetamide] | < 100
Cn1c(=O)c2c(ncn2CCC(=O)Nc2ccc(-c3ccsc3)cc2)n(C)c1=O [Compound 87, 3-(1,3-dimethyl-2,6-dioxo-1,2,3,6-tetrahydro-7H-purin-7-yl)-N-(4-(thiophen-3-yl)phenyl)propanamide] | < 100
Cn1c(=O)c2c(ncn2CC(=O)Nc2ccc(N3CCN(C(=O)c4ccccc4)CC3)cn2)n(C)c1=O [Compound 45, N-(5-(4-benzoylpiperazin-1-yl)pyridin-2-yl)-2-(1,3-dimethyl-2,6-dioxo-2,3-dihydro-1H-purin-7(6H)-yl)acetamide] | < 100
Cn1c(=O)c2c(ncn2CC(=O)Nc2ccc(-c3ccsc3)cc2)n(C)c1=O [Compound 18, 2-(1,3-dimethyl-2,6-dioxo-2,3-dihydro-1H-purin-7(6H)-yl)-N-(4-(thiophen-3-yl)phenyl)acetamide] | < 100
Cn1c(=O)c2c(ncn2CC(=O)Nc2ccc(N3CCN(C(=O)c4ccc(F)cc4)CC3)cn2)n(C)c1=O [Compound 52, 2-(1,3-dimethyl-2,6-dioxo-2,3-dihydro-1H-purin-7(6H)-yl)-N-(5-(4-(4-fluorobenzoyl)piperazin-1-yl)pyridin-2-yl)acetamide] | < 1000
CC(C)C(C(=O)Nc1ccc(-c2ccccc2)cc1)n1cnc2c1c(=O)n(C)c(=O)n2C (centres unmarked) [Compound 65, N-(biphenyl-4-yl)-2-(1,3-dimethyl-2,6-dioxo-2,3-dihydro-1H-purin-7(6H)-yl)-3-methylbutanamide] | > 10000
Cn1c(=O)c2c(ncn2CCC(=O)Nc2ccc(-c3cccs3)cc2)n(C)c1=O [Compound 90, 3-(1,3-dimethyl-2,6-dioxo-1,2,3,6-tetrahydro-7H-purin-7-yl)-N-(4-(thiophen-2-yl)phenyl)propanamide] | < 100
COc1cccc(-c2ccc(NC(=O)Cn3cnc4c3c(=O)n(C)c(=O)n4C)cc2)c1 [Compound 32, 2-(1,3-dimethyl-2,6-dioxo-2,3-dihydro-1H-purin-7(6H)-yl)-N-(3′-methoxybiphenyl-4-yl)acetamide] | < 100
Cn1c(=O)c2c(nc(C(F)(F)F)n2CC(=O)Nc2ccc(-c3ccsc3)cc2)n(C)c1=O [Compound 70, 2-(1,3-dimethyl-2,6-dioxo-8-(trifluoromethyl)-2,3-dihydro-1H-purin-7(6H)-yl)-N-(4-(thiophen-3-yl)phenyl)acetamide] | < 100
C[C@H]1CN(C(=O)OC(C)(C)C)CCN1c1ccc(NC(=O)Cn2cnc3c2c(=O)n(C)c(=O)n3C)cc1 [Compound 15, (S)-tert-butyl 4-(4-(2-(1,3-dimethyl-2,6-dioxo-2,3-dihydro-1H-purin-7(6H)-yl)acetamido)phenyl)-3-methylpiperazine-1-carboxylate] | < 100
C[C@@H](C(=O)Nc1ccc(-c2ccsc2)cc1)n1cnc2c1c(=O)n(C)c(=O)n2C [Compound 59, (S)-2-(1,3-dimethyl-2,6-dioxo-2,3-dihydro-1H-purin-7(6H)-yl)-N-(4-(thiophen-3-yl)phenyl)propanamide] | < 100
Cn1c(=O)c2c(ncn2CC(=O)Nc2cnc(-c3ccccc3)cn2)n(C)c1=O [Compound 36, 2-(1,3-dimethyl-2,6-dioxo-2,3-dihydro-1H-purin-7(6H)-yl)-N-(5-phenylpyrazin-2-yl)acetamide] | < 100
Cn1c(=O)c2c(ncn2CC(=O)Nc2ccc(-n3ccnc3)cc2)n(C)c1=O [Compound 4, N-(4-(1H-imidazol-1-yl)phenyl)-2-(1,3-dimethyl-2,6-dioxo-2,3-dihydro-1H-purin-7(6H)-yl)acetamide] | < 1000
Cn1c(=O)c2c(ncn2CC(=O)Nc2ccc(N3CCN(Cc4ccccc4F)CC3)cn2)n(C)c1=O [Compound 55, 2-(1,3-dimethyl-2,6-dioxo-2,3-dihydro-1H-purin-7(6H)-yl)-N-(5-(4-(2-fluorobenzyl)piperazin-1-yl)pyridin-2-yl)acetamide] | < 5000
Cc1nc(-c2ccc(NC(=O)[C@@H](C)n3cnc4c3c(=O)n(C)c(=O)n4C)nc2)cs1 [Compound 85, (R)-2-(1,3-dimethyl-2,6-dioxo-2,3-dihydro-1H-purin-7(6H)-yl)-N-(5-(2-methylthiazol-4-yl)pyridin-2-yl)propanamide] | < 5000
CCC(C(=O)Nc1ccc(-c2ccsc2)cc1)n1cnc2c1c(=O)n(C)c(=O)n2C (centres unmarked) [Compound 64, 2-(1,3-dimethyl-2,6-dioxo-2,3-dihydro-1H-purin-7(6H)-yl)-N-(4-(thiophen-3-yl)phenyl)butanamide] | < 100
Cc1nc(-c2ccc(NC(=O)Cn3cnc4c3c(=O)n(C)c(=O)n4C)cc2)cs1 [Compound 33, 2-(1,3-dimethyl-2,6-dioxo-2,3-dihydro-1H-purin-7(6H)-yl)-N-(4-(2-methylthiazol-4-yl)phenyl)acetamide] | < 100
Cn1c(=O)c2c(ncn2CC(=O)Nc2ccc(N3CCN(Cc4cccc(Cl)c4)CC3)cn2)n(C)c1=O [Compound 21, N-(5-(4-(3-chlorobenzyl)piperazin-1-yl)pyridin-2-yl)-2-(1,3-dimethyl-2,6-dioxo-2,3-dihydro-1H-purin-7(6H)-yl)acetamide] | < 100
CC(C(=O)Nc1ccc(-c2ccc(F)cc2)nn1)n1cnc2c1c(=O)n(C)c(=O)n2C (centres unmarked) [Compound 78, 2-(1,3-dimethyl-2,6-dioxo-2,3-dihydro-1H-purin-7(6H)-yl)-N-(6-(4-fluorophenyl)pyridazin-3-yl)propanamide] | < 1000
CC(=O)N1CCN(c2ccc(NC(=O)Cn3cnc4c3c(=O)n(C)c(=O)n4C)nc2)CC1 [Compound 48] | < 1000
Cn1c(=O)c2c(ncn2CCCC(=O)Nc2ccc(-c3nccs3)cc2)n(C)c1=O [Compound 94, 4-(1,3-dimethyl-2,6-dioxo-1,2,3,6-tetrahydro-7H-purin-7-yl)-N-(4-(thiazol-2-yl)phenyl)butanamide] | < 1000
COc1cc(NC(=O)Cn2cnc3c2c(=O)n(C)c(=O)n3C)ccc1-c1ccccc1 [Compound 14, 2-(1,3-dimethyl-2,6-dioxo-2,3-dihydro-1H-purin-7(6H)-yl)-N-(2-methoxybiphenyl-4-yl)acetamide] | < 1000
O=C(Cn1cnc2[nH]c(=O)[nH]c(=O)c21)Nc1ccc(-c2ccsc2)cc1 [Compound 71, 2-(2,6-dioxo-2,3-dihydro-1H-purin-7(6H)-yl)-N-(4-(thiophen-3-yl)phenyl) acetamide] | > 10000
Cn1c(=O)c2c(ncn2CC(=O)Nc2ccc(N3CCN(Cc4cc(F)cc(F)c4)CC3)cn2)n(C)c1=O [Compound 54, N-(5-(4-(3,5-difluorobenzyl)piperazin-1-yl)pyridin-2-yl)-2-(1,3-dimethyl-2,6-dioxo-2,3-dihydro-1H-purin-7(6H)-yl)acetamide] | < 100
